# In US11001591B2, “TRAF 6 inhibitors” (HELMHOLTZ ZENTRUM MUENCHEN—DEUTSCHES FORSCHUNGSZENTRUM FÜR …, priority 2016, dated 2021):
# Entries after “also recorded” stand apart in the source; their conditions may differ. Where two headings read alike, the source gives them in different places.
# Legend:
# TRAF6-UBC13 interaction = target: T1, TRAF6-UBC13 interaction (Homo sapiens, UniProt Q9Y4K3); assay: ALPHAScreen TRAF6WTStrepII-Ubc13FH interaction assay; assay type: binding
# T1 construct: RING-Zincfinger1 (RZ1) domain (residues 50-159) of TRAF6 wildtype; made in house; host or cells: E. coli BL21 codon plus RIPL
# T1 sequence (Q9Y4K3 50-159): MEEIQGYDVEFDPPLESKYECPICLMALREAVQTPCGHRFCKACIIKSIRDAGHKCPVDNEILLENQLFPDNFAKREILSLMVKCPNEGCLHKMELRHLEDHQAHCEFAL
# Excerpt: In order to identify small molecules that specifically target the RZ1 domain of TRAF6 and thereby prevent its binding to Ubc13, the ALPHAScreen technology (PerkinElmer) was chosen to detect TRAF6WTStrepII-Ubc13FH interaction in High-Throughput-Screenings as well as Structure Activity Relationship (SAR) analysis.
# For performance of an automated ALPHAScreen assay, all following components were pre-diluted in ALPHAScreen buffer (1×PBS, 0.5% BSA, 0.01% Tween-20). First, the TRAF6 protein (end concentration 100 nM, 30 μL volume) was added to 384-well-opti-plates involving the MultiFlo dispensing system (BioTek) followed by transfer of the compounds via the Sciclone G3 transfer station (PerkinElmer). After addition of Ubc13FH (end concentration 75 nM, 10 μL volume) with the MultiFlo system and incubation for one hour at room temperature, both beads (Strep-Tactin Alpha Donor beads and Nickel-Chelate acceptor beads; end concentrations 4 μg each, 10 μL volume each) were mixed and added using the MultiFlo system in subdued light. Read-out of the plates occurred after another hour of incubation at room temperature. Statistical parameters including the coefficient of variation, Z′ factor and signal window were calculated to determine the quality of the HTS campaign. To evaluate the efficacy of the compounds, ALPHAScreen units of compound-treated samples were referred to DMSO control treated samples. Thereby, the TRAF6D57K mutant served as the control for minimum signal and was included on every plate of the screening. Compounds that inhibited TRAF6WTStrepII-Ubc13FH by more than 25% were considered as actives. After elimination of ALPHAScreen frequent hitter compounds and His-tag frequent hitters (Schorpp, K., I. Rothenaigner, E. Salmina, et al., Identification of Small-Molecule Frequent Hitters from AlphaScreen High-Throughput Screens. J Biomol Screen, 2014. 19(5): p. 715-26), 178 compounds were defined as primary hits and were subsequently tested in five-point serial dilution assays (2.5-40 μM) in TRAF6WTStrepII-Ubc13FH ALPHAScreen experiments. Only compounds with dose-dependent effects on TRAF6WTStrepII-Ubc13FH (n=27) were taken for further research. For analog testing, all compounds were analyzed in ten-point titration (0.2-100 μM) in TRAF6WTStrepII-Ubc13FH ALPHAScreen experiments. In parallel, the compounds were tested in the ALPHAScreen TruHits Kit (PerkinElmer) to rule out unspecific interference with the ALPHAScreen technology.
# TRAF6-Ubc13 binding = target: T2, TRAF6-Ubc13 binding (Homo sapiens, UniProt Q9Y4K3); assay: Co-immunoprecipitation of HA-TRAF6 and endogenous Ubc13 in HEK 293T cells; assay type: cell-based
# T2 construct: RING-Zincfinger1 (RZ1) domain (residues 50-159) of TRAF6 wildtype; expressed in transfected cells; host or cells: HEK 293T
# T2 sequence (Q9Y4K3 50-159): T1 sequence (Q9Y4K3 50-159)
# Method: To study the interaction of TRAF6 and Ubc13 in cells, 1×10^6 293T cells were seeded and after 18 hours cells were transfected with lpg pEF-HA empty or pEF-HA-TRAF6 RZ1 plasmid using the X-tremeGENE HP DNA transfection reagent (Roche). 6 hours upon transfection, cells were treated with compound or DMSO. After 42 hours further incubation, cells were harvested in Co-IP lysis buffer and HA-TRAF6 was immunoprecipitated with anti-HA affinity matrix (Roche). Binding of Ubc13 to TRAF6 was examined in Western Blot analysis.
compound,measurement,setting,value
"Cc1nn(-c2ccc3nnc(C)n3n2)c(C)c1CCC(=O)N1CCC(Cc2ccccc2)C1 (centres unmarked) [Compound 31, 1-(3-benzylpyrrolidin-1-yl)-3-(3,5-dimethyl-1-(3-methyl-[1,2,4]triazolo[4,3-b]pyridazin-6-yl)-1H-pyrazol-4-yl)propan-1-one]",inhibitory activity in ALPHAScreen,TRAF6-UBC13 interaction; serial dilution,most prominent effect
same,interaction of endogenous Ubc13 with ectopically expressed HA-TRAF6,TRAF6-Ubc13 binding; listed as HZM06-4,active in cells; also recorded: most active analogs
"Cc1nn(-c2ccc3nnc(C)n3n2)c(C)c1CCC(=O)N1CCN(Cc2ccccc2)CC1 [Compound 28, 1-(4-benzylpiperazin-1-yl)-3-(3,5-dimethyl-1-(3-methyl-[1,2,4]triazolo[4,3-b]pyridazin-6-yl)-1H-pyrazol-4-yl)propan-1-one]",interaction of endogenous Ubc13 with ectopically expressed HA-TRAF6,TRAF6-Ubc13 binding,active in cells
"Cc1nn(-c2ccc3nnc(C)n3n2)c(C)c1CCC(=O)N1CCN(Cc2ccc(F)cc2)CC1 [Compound 30, 3-(3,5-dimethyl-1-(3-methyl-[1,2,4]triazolo[4,3-b]pyridazin-6-yl)-1H-pyrazol-4-yl)-1-(4-(4-fluorobenzyl)piperazin-1-yl)propan-1-one]",interaction of endogenous Ubc13 with ectopically expressed HA-TRAF6,TRAF6-Ubc13 binding,active in cells
"Cc1nn(-c2ccc3nnc(C)n3n2)c(C)c1CCC(=O)N1CCC(Cc2ccccn2)CC1 [Compound 36, 3-(3,5-dimethyl-1-(3-methyl-[1,2,4]triazolo[4,3-b]pyridazin-6-yl)-1H-pyrazol-4-yl)-1-(4-(pyridin-2-ylmethyl)piperidin-1-yl)propan-1-one]",interaction of endogenous Ubc13 with ectopically expressed HA-TRAF6,TRAF6-Ubc13 binding,active in cells
"Cc1nn(-c2ccc3nnc(C)n3n2)c(C)c1CCC(=O)N1CCC(Cc2ccc(F)cc2)CC1 [Compound 35, 3-(3,5-dimethyl-1-(3-methyl-[1,2,4]triazolo[4,3-b]pyridazin-6-yl)-1H-pyrazol-4-yl)-1-(4-(4-fluorobenzyl)piperidin-1-yl)propan-1-one]",interaction of endogenous Ubc13 with ectopically expressed HA-TRAF6,TRAF6-Ubc13 binding; listed as HZM06-9,active in cells; also recorded: most active analogs
"Cc1nn(-c2ccc3nnc(C)n3n2)c(C)c1CCC(=O)N1CCC(c2ccccc2)CC1 [Compound 32, 3-(3,5-dimethyl-1-(3-methyl-[1,2,4]triazolo[4,3-b]pyridazin-6-yl)-1H-pyrazol-4-yl)-1-(4-phenylpiperidin-1-yl)propan-1-one]",interaction of endogenous Ubc13 with ectopically expressed HA-TRAF6,TRAF6-Ubc13 binding,active in cells
"Cc1nn(-c2ccc3nnc(C)n3n2)c(C)c1CCC(=O)N1CCC(c2ccccn2)CC1 [Compound 33, 3-(3,5-dimethyl-1-(3-methyl-[1,2,4]triazolo[4,3-b]pyridazin-6-yl)-1H-pyrazol-4-yl)-1-(4-(pyridin-2-yl)piperidin-1-yl)propan-1-one]",interaction of endogenous Ubc13 with ectopically expressed HA-TRAF6,TRAF6-Ubc13 binding; listed as HZM06-7,active in cells; also recorded: most active analogs
"COc1cccc(CC2CCN(C(=O)CCc3c(C)nn(-c4ccc5nnc(C)n5n4)c3C)CC2)c1 [Compound 34, 3-(3,5-dimethyl-1-(3-methyl-[1,2,4]triazolo[4,3-b]pyridazin-6-yl)-1H-pyrazol-4-yl)-1-(4-(3-methoxybenzyl)piperidin-1-yl)propan-1-one]",interaction of endogenous Ubc13 with ectopically expressed HA-TRAF6,TRAF6-Ubc13 binding; listed as HZM06-8,active in cells; also recorded: most active analogs
"COc1cccc(CN2CCN(C(=O)CCc3c(C)nn(-c4ccc5nnc(C)n5n4)c3C)CC2)c1 [Compound 29, 3-(3,5-dimethyl-1-(3-methyl-[1,2,4]triazolo[4,3-b]pyridazin-6-yl)-1H-pyrazol-4-yl)-1-(4-(3-methoxybenzyl)piperazin-1-yl)propan-1-one]",interaction of endogenous Ubc13 with ectopically expressed HA-TRAF6,TRAF6-Ubc13 binding,active in cells
"Cc1ccc(C)c(N2CCN(C(=O)CCc3c(C)nn(-c4ccc5nnc(C)n5n4)c3C)CC2)c1 [Compound 17, 3-(3,5-dimethyl-1-(3-methyl-[1,2,4]triazolo[4,3-b]pyridazin-6-yl)-1H-pyrazol-4-yl)-1-(4-(2,5-dimethylphenyl)piperazin-1-yl)propan-1-one]",IC50,TRAF6-UBC13 interaction; inhibition of TRAF6-UBC13 interaction,≤ 30 µM
